For data set [1], the target named is Adenosine A2 receptor (Homo sapiens) (UniProt P29275+P29274). Kind of data set: Selectivity of adenosine A2A receptor over adenosine A2B receptor. The format is protein assay.
For a further data set, the target named is T1, Adenosine receptor A2b (Homo sapiens, UniProt P29275).
T1 sequence (P29275 whole entry): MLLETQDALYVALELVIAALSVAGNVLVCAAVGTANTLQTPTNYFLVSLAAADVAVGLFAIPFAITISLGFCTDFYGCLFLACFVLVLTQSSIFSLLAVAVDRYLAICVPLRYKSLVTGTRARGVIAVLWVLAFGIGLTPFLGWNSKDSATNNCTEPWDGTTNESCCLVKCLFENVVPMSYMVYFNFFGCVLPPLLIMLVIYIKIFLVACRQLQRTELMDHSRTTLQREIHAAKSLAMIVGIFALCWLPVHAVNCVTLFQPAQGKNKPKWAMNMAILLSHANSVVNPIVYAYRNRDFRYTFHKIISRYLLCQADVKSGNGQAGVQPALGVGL
Kind of data set: Displacement of [3H]ZM-241385 from Adenosine A2B receptor expressed in HEK cells. The format is cell-based, HEK293.

For data set [2], the target named is Adenosine receptors; A2b & A3 (Homo sapiens) (UniProt P29275+P0DMS8). Nature of the data set: Selectivity of adenosine A3 receptor over adenosine A2B receptor. The format is protein assay.
The target of a further data set is T2, Adenosine receptor A3 (Homo sapiens, UniProt P0DMS8).
T2 sequence (P0DMS8 whole entry): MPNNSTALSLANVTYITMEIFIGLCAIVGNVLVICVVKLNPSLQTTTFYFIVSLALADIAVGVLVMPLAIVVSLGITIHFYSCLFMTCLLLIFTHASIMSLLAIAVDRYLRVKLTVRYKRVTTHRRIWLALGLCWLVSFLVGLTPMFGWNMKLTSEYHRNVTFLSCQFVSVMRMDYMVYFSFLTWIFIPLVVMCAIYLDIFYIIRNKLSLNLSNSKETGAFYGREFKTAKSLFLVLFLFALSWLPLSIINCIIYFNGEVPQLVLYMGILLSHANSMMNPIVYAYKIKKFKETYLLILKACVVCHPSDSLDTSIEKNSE
Nature of the data set: Displacement of [125I]AB-MECA from Adenosine A3 receptor expressed in CHO cells. The format is cell-based.

In the next data set the target is T3, Adenosine receptor A1 (Homo sapiens, UniProt P30542).
T3 sequence (P30542 whole entry): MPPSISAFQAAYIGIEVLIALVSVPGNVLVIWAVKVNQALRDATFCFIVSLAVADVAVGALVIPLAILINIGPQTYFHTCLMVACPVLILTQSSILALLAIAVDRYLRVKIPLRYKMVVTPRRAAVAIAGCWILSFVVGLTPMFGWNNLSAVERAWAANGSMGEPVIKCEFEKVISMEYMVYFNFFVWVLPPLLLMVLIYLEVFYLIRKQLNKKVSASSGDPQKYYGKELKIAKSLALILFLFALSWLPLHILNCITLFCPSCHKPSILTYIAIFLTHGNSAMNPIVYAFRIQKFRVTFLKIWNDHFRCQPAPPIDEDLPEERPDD
Nature of the data set: Displacement of [3H]CPX from Adenosine A1 receptor expressed in CHO cells. The format is cell-based. On the technique in general: Loss of bound radioactivity is the signal in a displacement assay; it reports binding, not function.

Data set [3] deals with Adenosine receptors; A1 & A2b (Homo sapiens) (UniProt P30542+P29275). Kind of data set: Selectivity of adenosine A1 receptor over adenosine A2B receptor. The format is protein assay.
For a further data set, the target named is Adenosine receptor A2a (Homo sapiens, UniProt P29274). Nature of the data set: Displacement of [3H]ZM-241385 from Adenosine A2A receptor expressed in HEK cells. Type of data set: cell-based, HEK293.
Adenosine receptor A2a, sequence (P29274 whole entry): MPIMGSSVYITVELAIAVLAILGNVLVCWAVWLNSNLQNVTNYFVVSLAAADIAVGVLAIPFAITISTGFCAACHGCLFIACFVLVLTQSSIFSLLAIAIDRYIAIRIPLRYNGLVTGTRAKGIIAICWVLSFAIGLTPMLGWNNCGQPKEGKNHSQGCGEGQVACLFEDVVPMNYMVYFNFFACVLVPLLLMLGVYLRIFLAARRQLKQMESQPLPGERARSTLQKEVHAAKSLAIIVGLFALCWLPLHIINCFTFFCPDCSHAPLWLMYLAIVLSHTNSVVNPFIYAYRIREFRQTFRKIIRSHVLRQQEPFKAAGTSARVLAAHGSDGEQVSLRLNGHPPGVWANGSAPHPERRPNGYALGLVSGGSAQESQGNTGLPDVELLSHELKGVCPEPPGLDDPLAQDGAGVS
The nature of data set [4]: Half life in rat administered at 1 mg/kg. The format is ADME, organism-based. Further details: dose 1 mg/kg. To be noted: in vivo.
Data set [5] in a line: AUC in rat administered at 1 mg/kg. Type of data set: ADME, organism-based. On the set-up: dose 1 mg/kg. As to conditions: plasma.
The nature of data set [6]: Oral bioavailability in rat administered at 1 mg/kg. Type of data set: ADME, organism-based. To be noted: in vivo.

For orientation: pKi means the negative decadic logarithm of the Ki, by convention in mol/L. A higher pKi goes with a low Ki. As a reminder, the half-life is the time needed for the level to fall by half in the phase considered. A word on the AUC: it is the area under the concentration-time curve, a measure of exposure. A high value points to high exposure. The term bioavailability denotes dose-corrected exposure relative to a reference, in per cent.

pKi: −log10 of the molar value.

Adenosine A2 receptor (Homo sapiens), sequence (P29274 whole entry, looked up, one chain of several): as the sequence (P29274 whole entry) above

With `CCCn1c(=O)c2nc(-c3cnn(Cc4noc(-c5ccc(OC)cc5)n4)c3)[nH]c2n(CCC)c1=O`, the Ratio Ki in [1] is > 40; in [2], 19; in [3], 32. Further, the pKi at Adenosine receptor A2b was 6.91; on Adenosine receptor A3, 5.64; at Adenosine receptor A1, 5.41; on Adenosine receptor A2a, < 5.30.
`CCCn1c(=O)c2nc(-c3cnn(Cc4nc(-c5ccccc5C(F)(F)F)no4)c3)[nH]c2n(CCC)c1=O`: the Ratio Ki is > 67 in [1], 4 in data set [2] and 7 in [3]. Besides, the negative-log Ki (pKi) on Adenosine receptor A2b was 7.13; at Adenosine receptor A3, 6.47; on Adenosine receptor A1 it was 6.28; on Adenosine receptor A2a, < 5.30.
In the case of `CCCn1c(=O)c2nc(-c3cnn(Cc4nc(-c5ccc(Cl)cc5)no4)c3)[nH]c2n(CCC)c1=O`, the Ratio Ki in data set [1] was 85; in [2] it was 19; in data set [3] it was 35. Further, the pKi on Adenosine receptor A2b was 7.68; at Adenosine receptor A3 it was 6.40; at Adenosine receptor A1 it was 6.13; on Adenosine receptor A2a it was 5.74. This compound had a half-life in data set [4] of 1.5 h. For the same compound, the AUC in data set [5] was determined as 2330 ng·h/mL. In addition, the bioavailability in data set [6] was found to be 22%.
For the compound `CCCn1c(=O)c2nc(-c3cnn(Cc4cc(-c5cccc(Cl)c5)on4)c3)[nH]c2n(CCC)c1=O`, the Ratio Ki was > 30 in data set [1], 27 in data set [2] and 28 in data set [3]. Also, the pKi on Adenosine receptor A2b is 6.79; at Adenosine receptor A3 it was 5.36; on Adenosine receptor A1, 5.34; on Adenosine receptor A2a it was < 5.30.
For `CCCn1c(=O)c2[nH]c(-c3cnn(Cc4cc(-c5ccccc5)on4)c3)nc2n(CCC)c1=O`, the Ratio Ki in data set [1] was determined as 30; in [2], 128; in data set [3], 107. For the same compound, the pKi on Adenosine receptor A2b was 7.85; on Adenosine receptor A3 it was 5.74; at Adenosine receptor A1, 5.82; at Adenosine receptor A2a it was 6.38.
On to `CCCn1c(=O)c2[nH]c(-c3cnn(Cc4noc(-c5ccccc5)n4)c3)nc2n(CCC)c1=O`, for which the figures for the Ratio Ki in [1], in data set [2] and in [3] were 85, 30 and 47, respectively. Besides, the pKi at Adenosine receptor A2b is 7.68; on Adenosine receptor A3 it was 6.20; on Adenosine receptor A1, 6.00; at Adenosine receptor A2a, 5.74.
As for `CCCn1c(=O)c2nc(-c3cnn(Cc4noc(-c5ccc(Cl)cc5)n4)c3)[nH]c2n(CCC)c1=O`, the Ratio Ki in data set [1] is > 128; in data set [2], > 213; in [3], 74. Besides, the pKi was 7.41 on Adenosine receptor A2b, < 5.08 on Adenosine receptor A3, 5.54 at Adenosine receptor A1 and < 5.30 at Adenosine receptor A2a.
Regarding `CCCn1c(=O)c2nc(-c3cnn(Cc4nc(-c5ccccc5)no4)c3)[nH]c2n(CCC)c1=O`, the Ratio Ki in [1] is 1100; in data set [2], 480; in data set [3], 370. The pKi on Adenosine receptor A2b is 9.00; at Adenosine receptor A3, 6.32; on Adenosine receptor A1 it was 6.43; at Adenosine receptor A2a, 5.96.
Consider `CCCn1c(=O)c2nc(-c3cnn(Cc4noc(-c5ccc(C(F)(F)F)cc5)n4)c3)[nH]c2n(CCC)c1=O`, for which the Ratio Ki in data set [1] was > 238; in data set [2], 61; in data set [3], > 285. The pKi on Adenosine receptor A2b was 7.68; at Adenosine receptor A3, 5.89; on Adenosine receptor A1, < 5.22; on Adenosine receptor A2a it was < 5.30.
As to `CCCn1c(=O)c2nc(-c3cnn(Cc4nc(-c5cccc(C(F)(F)F)c5)no4)c3)[nH]c2n(CCC)c1=O`, the Ratio Ki is > 119 in data set [1], 22 in [2] and 83 in data set [3]. In addition, the pKi on Adenosine receptor A2b was 7.38; at Adenosine receptor A3 it was 6.02; on Adenosine receptor A1, 5.46; at Adenosine receptor A2a it was < 5.30.
For the compound `CCCn1c(=O)c2nc(-c3cnn(Cc4nc(-c5ccc(OC)cc5)no4)c3)[nH]c2n(CCC)c1=O`, the figures for the Ratio Ki in data set [1], in [2] and in data set [3] were > 47, 14 and 28, respectively. In addition, the pKi at Adenosine receptor A2b is 6.97; at Adenosine receptor A3, 5.82; on Adenosine receptor A1 it was 5.52; at Adenosine receptor A2a, < 5.30.
In the case of `CCCn1c(=O)c2nc(-c3cnn(Cc4noc(-c5cccc(Cl)c5)n4)c3)[nH]c2n(CCC)c1=O`, the figures for the Ratio Ki in data set [1], in [2] and in data set [3] were > 37, 22 and 22, respectively. The pKi at Adenosine receptor A2b was 6.87; at Adenosine receptor A3, 5.52; at Adenosine receptor A1 it was 5.52; on Adenosine receptor A2a, < 5.30.
For the compound `CCCn1c(=O)c2nc(-c3cnn(Cc4cc(-c5cccc(OC)c5)on4)c3)[nH]c2n(CCC)c1=O`, the Ratio Ki was > 38 in [1], > 38 in data set [2] and 27 in data set [3]. Besides, the pKi on Adenosine receptor A2b is 6.88; at Adenosine receptor A3, < 5.30; on Adenosine receptor A1 it was 5.46; at Adenosine receptor A2a, < 5.30.
`CCCn1c(=O)c2nc(-c3cnn(Cc4noc(-c5ccccc5OC)n4)c3)[nH]c2n(CCC)c1=O`: the Ratio Ki in [1] is 40; in data set [2] it was > 100; in data set [3], 11. Also, the pKi is 7.08 at Adenosine receptor A2b, < 5.08 on Adenosine receptor A3, 6.03 on Adenosine receptor A1 and 5.47 on Adenosine receptor A2a.
Take `CCCn1c(=O)c2nc(-c3cnn(Cc4nc(-c5ccccc5Cl)no4)c3)[nH]c2n(CCC)c1=O`: the Ratio Ki worked out at 130 in data set [1], 25 in data set [2] and 130 in data set [3]. For the same compound, the negative-log Ki (pKi) at Adenosine receptor A2b is 7.72; at Adenosine receptor A3, 6.31; at Adenosine receptor A1, 5.60; on Adenosine receptor A2a, 5.60.
For the compound `CCCn1c(=O)c2nc(-c3cnn(Cc4cc(-c5ccccc5C(F)(F)F)on4)c3)[nH]c2n(CCC)c1=O`, the Ratio Ki in [1] is > 41; in data set [2], 34; in [3], 30. Further, the pKi at Adenosine receptor A2b is 6.92; on Adenosine receptor A3 it was 5.38; at Adenosine receptor A1 it was 5.43; on Adenosine receptor A2a it was < 5.30.
As to `CCCn1c(=O)c2[nH]c(-c3cnn(Cc4cc(-c5ccc(OC)cc5)on4)c3)nc2n(CCC)c1=O`, the negative logarithm of the Ki (pKi) at Adenosine receptor A2b is 7.20; at Adenosine receptor A3 it was 5.52; on Adenosine receptor A1, 5.70; on Adenosine receptor A2a, < 5.30.

For the origin of these results see ChEMBL document CHEMBL1147761, “Novel 1,3-dipropyl-8-(1-heteroarylmethyl-1H-pyrazol-4-yl)-xanthine derivatives as high affinity and selective A2B adenosine receptor antagonists” (Bioorg Med Chem Lett, 2006).
